Data from article PMC7050258, “Inhibition of MGAT2 modulates fat‐induced gut peptide release and fat intake in normal mice and ameliorates obesity and diabetes in ob/ob mice fed on a high‐fat diet” (FEBS Open Bio, 2020).
Several values for one entry are separate records, joined by “and”; a condition that tells them apart may be missing. Identical values can stand only once.

What was measured:
[1] = biological target: T1, ACAT1 human (Homo sapiens, UniProt P35610); test: in vitro inhibitory activity against ACAT1; format: biochemical
T1 sequence (P35610 1-550): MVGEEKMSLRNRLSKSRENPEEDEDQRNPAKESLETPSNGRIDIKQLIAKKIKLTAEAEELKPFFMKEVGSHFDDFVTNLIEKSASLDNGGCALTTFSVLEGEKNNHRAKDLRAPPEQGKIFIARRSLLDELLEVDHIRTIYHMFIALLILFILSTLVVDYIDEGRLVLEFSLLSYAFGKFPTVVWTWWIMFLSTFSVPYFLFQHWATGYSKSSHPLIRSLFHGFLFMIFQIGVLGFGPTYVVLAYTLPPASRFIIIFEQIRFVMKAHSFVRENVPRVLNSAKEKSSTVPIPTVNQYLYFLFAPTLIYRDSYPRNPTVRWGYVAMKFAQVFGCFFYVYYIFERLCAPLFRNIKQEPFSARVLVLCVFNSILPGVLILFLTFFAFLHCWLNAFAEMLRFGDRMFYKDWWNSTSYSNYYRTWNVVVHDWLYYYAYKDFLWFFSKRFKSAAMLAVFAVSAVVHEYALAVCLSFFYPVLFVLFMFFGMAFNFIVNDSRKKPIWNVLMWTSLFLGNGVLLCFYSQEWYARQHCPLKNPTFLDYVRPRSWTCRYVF
Protocol: CpdB, CpdA, and pioglitazone were synthesized at Takeda Pharmaceutical Co., Ltd. (Tokyo, Japan). The in vitro inhibitory activities of CpdB and CpdA against MGAT2 and related acyltransferases (DGAT1, DGAT2, and ACAT1) were evaluated as described in our previous report 17 and patent application 19. Liraglutide (Victoza) was purchased from Novo Nordisk Pharma Ltd. (Bagsvaerd, Denmark). All other chemicals were of analytical grade and purchased from Wako Pure Chemicals (Osaka, Japan).

[2] = tested on: C57BL/6J mice; test: Oral meal tolerance test (MTT), plasma chylomicron TG; format: in vivo, mouse; details: for Plasma CM/TG AUC (0-4 h), AVE: mean, N=6; for Plasma CM/TG AUC (0-4 h), individual animal: single animal values
Protocol: Overnight‐fasted C57BL/6J mice underwent an MTT in the morning. Vehicle, CpdA (3, 10 mg·kg^−1), or Cpd B (3, 10 mg·kg^−1) was administered by gavage. The compound was suspended in 0.5% methylcellulose. […] Thirty minutes after injection, liquid meal (10 mL·kg^−1) comprising an admixture of corn oil and Ensure‐H (3 : 17 v/v) (Abbott Japan Co., Ltd., Tokyo, Japan) was orally loaded. Blood samples were collected preload (defined as 0 h) and 2 and 4 h after fat load, and plasma TG levels were measured. The area under the curve (AUC) of chylomicron TG (CM/TG), which is synthesized from dietary fat in the small intestine, was calculated by subtracting the plasma TG levels of the meal‐unloaded group from that of the meal‐loaded group.

[3] = tested on: HFD-fed ob/ob mice; test: HFD-fed ob/ob mice study; format: in vivo, mouse
Protocol: Male ob/ob mice were fed an HFD (D12451; Research Diets, Inc.) from 8 weeks of age to the end of the study. After 2 weeks of HFD feeding, the mice were divided into groups based on their body weight, food intake, glycated hemoglobin (GHb), and plasma biochemical parameters. […] Compounds were suspended in 0.5% methylcellulose. Body weight and food intake were monitored during the study. On day 34, blood was collected and GHb and plasma biochemical parameters were measured. In addition, body composition was analyzed by EchoMRI‐900 (Hitachi Aloka Medical, Ltd., Tokyo, Japan). On day 36, the mice in the vehicle‐ and CpdB‐treated group were individually placed in the metabolic chamber of an Oxymax system (Columbus Instruments, Columbus, OH, USA). After 3 h of adaptation, oxygen consumption (VO2) and carbon dioxide production (VCO2) were analyzed for 22 h (from 13:00 to 11:00). During the measurement, dosing of vehicle or CpdB was performed at 18:00. Respiratory quotient (RQ) and energy expenditure (EE) were calculated with the following formulas: RQ=VCO2/VO2 EEkcal/h=3.815+1.232×VCO2/VO2×VO2
Blood samples were collected from the tail or facial vein without anesthesia and centrifuged at 1500 g for 10 min at 4 °C to isolate the plasma. To prevent degradation of incretin hormone, blood samples were treated with not only heparin/aprotinin but also a dipeptidyl peptidase‐4 (DPP‐4) inhibitor. Plasma alanine aminotransferase […] levels were measured by an Autoanalyzer 7180 (Hitachi High‐Technologies Corporation, Tokyo, Japan). GHb was measured with an automated GHb analyzer (HLC‐723G8; Tosoh, Tokyo, Japan). Plasma insulin was measured with an ELISA kit (Shibayagi Co., Ltd., Gunma, Japan). Plasma levels of total GLP‐1 and total PYY were also measured with an ELISA kit (Wako Pure Chemicals).

[4] = CpdB 30 mg/kg, pioglitazone 3 mg/kg oral once daily, mean
[5] = CpdB 30 mg/kg, pioglitazone 3 mg/kg oral once daily, single animal values
[6] = EchoMRI, day 34, CpdB 30 mg/kg, pioglitazone 3 mg/kg, mean
[7] = EchoMRI, day 34, CpdB 30 mg/kg, pioglitazone 3 mg/kg, single animal values
[8] = dark phase, day 36, CpdB 30 mg/kg, mean
[9] = dark phase, day 36, CpdB 30 mg/kg, single animal values
[10] = day 34, CpdB 30 mg/kg, pioglitazone 3 mg/kg oral once daily, mean ± SD, n=8
[11] = light phase, day 36, CpdB 30 mg/kg, mean
[12] = light phase, day 36, CpdB 30 mg/kg, single animal values

- IC50 [1]: > 30 µM
Compound: CC(C)(OC(=O)N[C@H]1CC[C@H](OC(=O)N2CCc3cc(S(=O)(=O)Nc4c(F)cc(Cl)cc4F)cc(N4CCCC4=O)c32)CC1)C(F)(F)F [CpdB]
- Plasma CM/TG AUC (0-4 h), AVE ([2]; 3 mg/kg oral at -6.5 h): 3977.6 mg/dLxh
- Plasma CM/TG AUC (0-4 h), individual animal ([2]; 3 mg/kg oral at -6.5 h): 3401.5 mg/dLxh and 5885.8 mg/dLxh and 3966.4 mg/dLxh and 3504.4 mg/dLxh and 3174.7 mg/dLxh and 3932.8 mg/dLxh
- decrease of plasma CM/TG AUC compared with the vehicle group ([2]; 10 mg/kg oral at -6.5 h): 37%
- Plasma CM/TG AUC (0-4 h), AVE ([2]; 10 mg/kg oral at -6.5 h): 4365.7 mg/dLxh
- Plasma CM/TG AUC (0-4 h), individual animal ([2]; 10 mg/kg oral at -6.5 h): 5644.3 mg/dLxh and 4575.4 mg/dLxh and 4611.1 mg/dLxh and 3882.4 mg/dLxh and 3535.9 mg/dLxh and 3945.4 mg/dLxh
- Plasma CM/TG AUC (0-4 h), individual animal ([2]; 10 mg/kg oral at -16.5 h): 3845.1 mg/dLxh and 6306.3 mg/dLxh and 6722.1 mg/dLxh and 3383.1 mg/dLxh and 3918.6 mg/dLxh and 3231.9 mg/dLxh
- Plasma CM/TG AUC (0-4 h), AVE ([2]; 10 mg/kg oral): 4567.8 mg/dLxh
- Body weight change from initial, AVE [3, 4]: 16.96%
- Cumulative food intake, AVE [3, 4]: 119.28 g
- Body weight change from initial, individual animal [3, 5]: 14.99% and 19.62% and 18.91% and 14.63% and 13.72% and 24.18% and 12.96% and 16.65%
- Cumulative food intake, individual animal [3, 5]: 119.82 g and 117.97 g and 119.56 g and 119.18 g and 110.06 g and 129.88 g and 111.80 g and 125.96 g
- Body composition, Fat, AVE [3, 6]: 59.70%
- Body composition, Lean, AVE [3, 6]: 40.30%
- Body composition, Fat, individual animal [3, 7]: 63.06% and 55.96% and 61.22% and 59.99% and 59.40% and 60.55% and 59.10% and 58.29%
- Body composition, Lean, individual animal [3, 7]: 38.78% and 40.01% and 40.60% and 39.45% and 40.90% and 41.71% and 36.94% and 44.04%
- GHb, Pre ([3]; before dosing, mean ± SD, n=8): 5.9 ± 0.4%
- Plasma ALT, Pre ([3]; before dosing, mean ± SD, n=8): 378 ± 76 U·L^−1
- Plasma AST, Pre ([3]; before dosing, mean ± SD, n=8): 333 ± 64 U·L^−1
- Plasma insulin, Pre ([3]; before dosing, mean ± SD, n=8): 106 ± 30 ng/mL
- ΔGHb, AVE ([3]; change 34 days after repeated dosing, CpdB 30 mg/kg, pioglitazone 3 mg/kg oral once daily, mean): -0.45%
- ΔGHb, individual animal ([3]; change 34 days after repeated dosing, CpdB 30 mg/kg, pioglitazone 3 mg/kg, single animal values): 0.60% and -0.50% and -0.20% and -1.10% and -0.60%
- Average EE, Dark, AVE [3, 8]: 0.55 kcal/h
- Average RQ, Dark, AVE [3, 8]: 0.87
- Average EE, Dark, individual animal [3, 9]: 0.61 kcal/h and 0.55 kcal/h and 0.54 kcal/h and 0.52 kcal/h and 0.53 kcal/h
- Average RQ, Dark, individual animal [3, 9]: 0.88 and 0.87 and 0.85 and 0.86
- GHb, Post [3, 10]: 5.4 ± 0.6 %
- Plasma ALT, Post [3, 10]: 632 ± 144 U·L^−1
- Plasma AST, Post [3, 10]: 492 ± 122 U·L^−1
- Plasma insulin, Post ([3]; day 34, CpdB 30 mg/kg, pioglitazone 3 mg/kg oral once daily, nonfasting, mean ± SD, n=8): 109 ± 40 ng/mL
- Average EE, Light, AVE [3, 11]: 0.45 kcal/h
- Average RQ, Light, AVE [3, 11]: 0.83
- Average EE, Light, individual animal [3, 12]: 0.46 kcal/h and 0.42 kcal/h and 0.43 kcal/h and 0.44 kcal/h and 0.49 kcal/h and 0.48 kcal/h
- Average RQ, Light, individual animal [3, 12]: 0.82 and 0.83 and 0.84 and 0.80
